Key:
C57BL/6 mice [1] = assay: DSS-induced chronic colitis; type: in vivo, mouse; conditions: 4 cycles of 2% DSS; for colon weight/length ratio / expression of Cldn4 in colons / inflammation (serum IL-6, IL-10, TNF-α, colonic tissue MPO levels) / shortening of colons: 20 mg/kg/day; for DSS-induced chronic colitis: 20 mg/kg/day on 4th and 6th day of each cycle
C57BL/6 mice [2] = assay: DSS-induced acute colitis; type: in vivo, mouse; conditions: oral 20 mg/kg on day 4 and 6
Method: DSS-induced colitis: Acute experimental colitis in mice was induced by giving 3% (w/v) colitis grade DSS (MP Biomedicals) in drinking water for 7 days. Control animal received drinking water without DSS. All colitis group mice were randomly divided into three groups viz. vehicle treated (0.25% Na-CMC), UroA (20 mg/kg/day) and UAS03 (20 mg/kg/day) on the 4th and 6th day of DSS treatment. After 7 days, animals were put back on regular water for a period of 7 days. For chronic DSS colitis model, we used three cycles of 2.0% (w/v) DSS and each DSS cycle consisted or 7 days followed by 10 days of regular water and mice were treated with UroA (20 mg/kg/day) on every 4th and 6th day of DSS cycle.
Assessment of colitis severity and tissue collection: Mice were evaluated daily for change in body weight, stool consistency and rectal bleeding and score was given and combined to obtained disease activity index (MURTHY et al., (1993) “Treatment of dextran sulfate sodium-induced murine colitis by intracolonic cyclosporin” Dig Dis Sci, Vol. 38, pp. 1722-1734). After euthanasia, the colon was removed and flushed with PBS containing (1 mM PMSF and 0.2 mM sodium orthovanadate). Colon length and colon weight were measured and small parts of colon were excised for myeloperoxidase (MPO) activity and RNA isolation. Tissues for MPO and RNA extraction were snap frozen in liquid nitrogen and stored in −80° C. until further analysis. Tissue for histological examination was stored in 10% phosphate buffered saline formalin. Blood was collected and serum was separated by centrifugation at 3500×g for 15 min. Serum cytokines (IL-6, TNF-α; Biolegend) and chemokines (CXCL1; R&D Systems) levels were measured by ELISA according to manufacturer's instructions.
In vivo intestinal permeability assay: The gut barrier function was evaluated by in vivo intestinal permeability using FITC-Dextran (MW 4000; FD4, Sigma-Aldrich, USA) (FURUTA et al., (2001) “Hypoxia-inducible factor 1-dependent induction of intestinal trefoil factor protects barrier function during hypoxia” J Exp Med, Vol. 193, pp. 1027-1034). Briefly, mice were orally administered with FITC-dextran (60 mg/100 gm body weight). Mice were fasted for 4 h prior to euthanization. The FITC-dextran concentration in serum was determined using the standard curve of FITC-dextran in serum (excitation, 485 nm; emission, 525 nm; BMG LABTECH).

C57B6/J mice = assay: LPS-induced sepsis survival; type: in vivo, mouse; conditions: LPS 20 mg/kg i.p.; for survival of septic mice: compound 20 mg/kg i.p.
Method: UAS03 (Ether) attenuates septic mortality. C57B6/J mice were injected with lipopolysaccharide intra-peritoneally at a septic dose of 20 mg/kg. The treated animals received either Urolithin-A or UAS03 (Ether) at 20 mg/kg intraperitoneal injection.
Preventive and therapeutic effect of UAS03 (Ether) in septic animals. Animals were injected with LPS intraperitoneally at 20 mg/kg dose to induce sepsis. For Ether+LPS group animals were given UAS03 (20 mg/kg; intraperitoneal) 1 hour prior LPS injection. LPS+Ether group received UAS03 1 hour post LPS injection.

HT29 or Caco2 cells = assay: Tight junction protein expression (RT PCR, immunoblot, confocal); type: cell-based, human; conditions: 24 h; for tight junction protein levels (Western blots; Cldn4 confocal imaging): HT29 and Caco2, 50 μM
Method: Real time PCR: Total RNA was isolated from cells/tissue using Maxwell® 16 LEV simplyRNA tissue kit (Promega) and reverse transcribed with TaqManC Reverse transcription Kit (Applied Biosystems, CA, USA). The transcribed cDNA (after dilution) was mixed with 100 nM gene specific primers (Real time primers LLC) and 1×SYBR green reaction mix (Power SYBR® Green PCR Master Mix; Applied Biosystems, CA, USA). Changes in gene expression was analyzed using CFX96™ Real-Time System (Bio Rad) and fold change in expression was calculated using 2^ΔΔCT method using GAPDH/0-actin as house keeping gene and normalized with untreated control.
Immunoblots (Western blots): The total protein lysates were collected either from colon tissue/cells using radioimmunoprecipitation assay (RIPA) buffer (Sigma-Aldrich, USA) and quantified using BCA protein quantification kit (Thermo Scientific) as per instructional manual. Total protein (20-50 μg) of was resolved on NuPAGE™ 4-12% Bis-Tris gel (Novex Life technologies) and transferred to polyvinylidene difluoride membrane (0.22 μm pore; Millipore, USA). After blocking with 5% (w/v) skim milk powder (containing 1×TBS) for 1 h, the membrane was then incubated with respective antibodies at 4° C. overnight (dilutions of respective antibodies is given in Table A1). Next day, respective secondary antibody conjugated with Horseradish peroxidase were probed and the chemiluminescent substrate was used to detect the protein bands (ImageQuant LAS 4000). Densitometry analysis of bands were done using ImageJ software. Antibodies for Cldn4, Ocln, Cldn1, Cyp1A1, AhR, HO1, NQO1, Keap1, β-actin and Lamin B were purchased from Santa Cruz Biotechnologies (USA) and Nrf2 from Novus Biologicals (USA).
Confocal Imaging: HT29 or CaCo2 or BMDM cells (50,000 cells/well) were plated on to 8-well chambered slides (154534PK; ThermoFisher Scientific) allowed them to grow overnight. The cells were induced with vehicle (0.01% DMSO) or UroA (50 μM) or UAS03 (50 μM) for desired time points and fixed with cold methonol. […]

Structure (SMILES)	colon weight/length ratio (C57BL/6 mice [1])	expression of Cldn4 in colons (C57BL/6 mice [1])	inflammation (serum IL-6, IL-10, TNF-α, colonic tissue MPO levels) (C57BL/6 mice [1])	shortening of colons (C57BL/6 mice [1])	DSS-induced chronic colitis (C57BL/6 mice [1])	3% DSS induced acute colitis (C57BL/6 mice [2])	DAI scores during disease progression (C57BL/6 mice [2])	survival, pretreated (1 hour prior LPS) (C57B6/J mice; 20 mg/kg i.p.)	survival, therapeutic group (1 hour post LPS) (C57B6/J mice; 20 mg/kg i.p.)	survival of septic mice (C57B6/J mice)	tight junction protein levels (Western blots; Cldn4 confocal imaging) (HT29 or Caco2 cells)	expression of ZO-1 and Ocln1 (real time PCR) (HT29 or Caco2 cells; HT29, 50 μM)
Oc1ccc2c(c1)COc1cc(O)ccc1-2 [UAS03, 6H-benzo[c]chromene-3,8-diol]	increased colon weight/length ratio	enhanced the expression of Cldn4	reduced inflammation	reduced shortening of colons	protected from DSS-induced colitis	protected from 3% DSS induced acute colitis	overall decreased DAI scores	70%	100%	90%	increased levels	
O=c1oc2cc(O)ccc2c2ccc(O)cc12 [UroA, 3,8-dihydroxy-6H-dibenzo[b,d]pyran-6-one]	increased colon weight/length ratio	enhanced the expression of Cldn4	reduced inflammation	reduced shortening of colons	protected from DSS-induced colitis	protected from 3% DSS induced acute colitis	overall decreased DAI scores			20%	increased levels	increase in expression

From patent US12377069B2, “Compounds, compositions, methods of using, and methods for preparing compounds” (UNIVERSITY OF LOUISVILLE RESEARCH FOUNDATION, INC., priority 2018, dated 2025)
